Measured values published in PubChem BioAssay (NCI).
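Dose response: 5 concentrations. Exposure: 48 h. Format: 96-well plates. Endpoint: linear interpolation; highest concentration if not reached. TGI denotes the concentration required for complete inhibition of growth.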

Legend:
Assay in all cases: growth of human tumour cells (NCI), 48 h
[1] = test system: IGROV1 ovarian
[2] = test system: OVCAR-4 ovarian
[3] = test system: U251 CNS
[4] = test system: KM12 colon
[5] = test system: OVCAR-8 ovarian
[6] = test system: COLO 205 colon
[7] = test system: A549 NSCLC
[8] = test system: SF-539 CNS
[9] = test system: DU-145 prostate
[10] = test system: OVCAR-5 ovarian
[11] = test system: HOP-92 NSCLC
[12] = test system: SF-268 CNS
[13] = test system: BT-549 breast
[14] = test system: SW-620 colon
[15] = test system: SN12C renal
[16] = test system: RPMI-8226 leukemia
[17] = test system: SK-OV-3 ovarian
[18] = test system: SK-MEL-5 melanoma
[19] = test system: NCI-H23 lung
[20] = test system: LOX IMVI melanoma
[21] = test system: EKVX NSCLC
[22] = test system: 786-0 renal
[23] = test system: MALME-3M melanoma
[24] = test system: ACHN renal
[25] = test system: HS 578T breast
[26] = test system: NCI-H522 lung
[27] = test system: T-47D breast
[28] = test system: RXF 393 renal
[29] = test system: SK-MEL-28 melanoma
[30] = test system: UACC-257 melanoma
[31] = test system: SNB-75 CNS
[32] = test system: SNB-19 CNS
[33] = test system: SF-295 CNS
[34] = test system: TK-10 renal
[35] = test system: UO-31 renal
[36] = test system: UACC-62 melanoma
[37] = test system: HCT-15 colon
[38] = test system: PC-3 prostate
[39] = test system: HL-60(TB) leukemia
[40] = test system: K-562 leukemia
[41] = test system: MCF7 breast
[42] = test system: M14 melanoma
[43] = test system: CAKI-1 renal
[44] = test system: NCI/ADR-RES ovarian
[45] = test system: CCRF-CEM leukemia
[46] = test system: MDA-MB-435
[47] = test system: OVCAR-3 ovarian
[48] = test system: MDA-N
[49] = test system: A498 renal
[50] = test system: HCC-2998 colon
[51] = test system: HT29 colon
[52] = test system: HCT-116 colon
[53] = test system: SK-MEL-2 melanoma
[54] = test system: NCI-H460 lung
[55] = test system: HOP-62 NSCLC
[56] = test system: NCI-H226 lung
[57] = test system: MDA-MB-231 breast
[58] = test system: MOLT-4 leukemia
[59] = test system: SR leukemia

## O=C1C=C(N2CCN(CCOCCO)CC2)C(=O)c2c(O)ccc(O)c21
[1]
  TGI: 9.9 µM
[2]
  TGI: 8.33 µM
[3]
  TGI: 15.9 µM
[4]
  TGI: 26.5 µM
[5]
  TGI: 17.9 µM
[6]
  TGI: 2.86 µM
[7]
  TGI: 11.4 µM
[8]
  TGI: 25.6 µM
[9]
  TGI: 10.5 µM
[10]
  TGI: 12.8 µM
[11]
  TGI: 20.7 µM
[12]
  TGI: 37.1 µM
[13]
  TGI: 25.5 µM
[14]
  TGI: 6.48 µM
[15]
  TGI: 14.8 µM
[16]
  TGI: > 100 µM
[17]
  TGI: 38.8 µM
[18]
  TGI: 3.12 µM
[19]
  TGI: 4.67 µM
[20]
  TGI: 6.62 µM
[21]
  TGI: 33.9 µM
[22]
  TGI: 21.7 µM
[23]
  TGI: 2910 nM
[24]
  TGI: 20.1 µM
[25]
  TGI: 45.3 µM
[26]
  TGI: 5.75 µM
[27]
  TGI: 18.4 µM
[28]
  TGI: 28.8 µM
[29]
  TGI: 32.7 µM
[30]
  TGI: 3.11 µM
[31]
  TGI: 30.6 µM
[32]
  TGI: 33.7 µM
[33]
  TGI: 27.8 µM
[34]
  TGI: 22.7 µM
[35]
  TGI: 22.6 µM
[36]
  TGI: 4.1 µM
[37]
  TGI: 9.55 µM
[38]
  TGI: 10.7 µM
[39]
  TGI: > 29.2 µM
[40]
  TGI: > 44.6 µM
[41]
  TGI: 2.98 µM
[42]
  TGI: 3.1 µM
[43]
  TGI: 29.3 µM
[44]
  TGI: 10.4 µM
[45]
  TGI: 14.8 µM
[46]
  TGI: 3.33 µM
[47]
  TGI: 5.35 µM
[48]
  TGI: 3.29 µM
[49]
  TGI: 27.8 µM
[50]
  TGI: 6.95 µM
[51]
  TGI: 15.5 µM
[52]
  TGI: 7.44 µM
[53]
  TGI: 18.5 µM
[54]
  TGI: 21.4 µM
[55]
  TGI: 32.7 µM
[56]
  TGI: 35.5 µM
[57]
  TGI: 21.8 µM

## CCOC(=O)Cn1c(=O)c(C)cn(COCCO)c1=O
[1]
  TGI: > 100 µM
[2]
  TGI: > 100 µM
[3]
  TGI: > 100 µM
[4]
  TGI: > 100 µM
[5]
  TGI: > 100 µM
[6]
  TGI: > 100 µM
[7]
  TGI: > 100 µM
[8]
  TGI: > 100 µM
[9]
  TGI: > 100 µM
[10]
  TGI: > 100 µM
[11]
  TGI: > 100 µM
[12]
  TGI: > 100 µM
[13]
  TGI: > 100 µM
[14]
  TGI: > 100 µM
[15]
  TGI: > 100 µM
[16]
  TGI: > 100 µM
[18]
  TGI: > 100 µM
[19]
  TGI: > 100 µM
[20]
  TGI: > 100 µM
[21]
  TGI: > 100 µM
[23]
  TGI: > 100000 nM
[24]
  TGI: > 100 µM
[25]
  TGI: > 100 µM
[26]
  TGI: > 100 µM
[27]
  TGI: > 100 µM
[28]
  TGI: > 100 µM
[29]
  TGI: > 100 µM
[30]
  TGI: > 100 µM
[31]
  TGI: > 100 µM
[32]
  TGI: > 100 µM
[34]
  TGI: > 100 µM
[35]
  TGI: > 100 µM
[38]
  TGI: > 100 µM
[39]
  TGI: > 100 µM
[40]
  TGI: > 100 µM
[58]
  TGI: > 100 µM
[41]
  TGI: > 100 µM
[42]
  TGI: > 100 µM
[43]
  TGI: > 100 µM
[44]
  TGI: > 100 µM
[46]
  TGI: > 100 µM
[47]
  TGI: > 100 µM
[48]
  TGI: > 100 µM
[49]
  TGI: > 100 µM
[50]
  TGI: > 100 µM
[51]
  TGI: > 100 µM
[53]
  TGI: > 100 µM
[54]
  TGI: > 100 µM
[55]
  TGI: > 100 µM
[56]
  TGI: > 100 µM
[57]
  TGI: > 100 µM

## C=CCNC(=S)/N=C/C(C(=O)Nc1ccccc1C)=C(\C)O
[1]
  TGI: > 100 µM
[2]
  TGI: > 100 µM
[3]
  TGI: > 100 µM
[4]
  TGI: > 100 µM
[5]
  TGI: > 100 µM
[6]
  TGI: > 100 µM
[7]
  TGI: > 100 µM
[8]
  TGI: > 100 µM
[9]
  TGI: > 100 µM
[10]
  TGI: > 100 µM
[12]
  TGI: > 100 µM
[13]
  TGI: > 100 µM
[14]
  TGI: > 100 µM
[15]
  TGI: > 100 µM
[16]
  TGI: > 100 µM
[17]
  TGI: > 100 µM
[18]
  TGI: > 100 µM
[19]
  TGI: > 100 µM
[20]
  TGI: > 100 µM
[21]
  TGI: > 100 µM
[22]
  TGI: > 100 µM
[24]
  TGI: > 100 µM
[25]
  TGI: > 100 µM
[26]
  TGI: > 100 µM
[27]
  TGI: > 100 µM
[28]
  TGI: > 100 µM
[30]
  TGI: > 100 µM
[32]
  TGI: > 100 µM
[33]
  TGI: > 100 µM
[34]
  TGI: > 100 µM
[35]
  TGI: > 100 µM
[36]
  TGI: > 100 µM
[37]
  TGI: > 100 µM
[38]
  TGI: > 100 µM
[39]
  TGI: > 100 µM
[40]
  TGI: > 100 µM
[58]
  TGI: > 100 µM
[41]
  TGI: > 100 µM
[42]
  TGI: > 100 µM
[43]
  TGI: > 100 µM
[44]
  TGI: > 100 µM
[46]
  TGI: > 100 µM
[47]
  TGI: > 100 µM
[48]
  TGI: > 100 µM
[50]
  TGI: > 100 µM
[51]
  TGI: > 100 µM
[52]
  TGI: > 100 µM
[53]
  TGI: > 100 µM
[54]
  TGI: > 100 µM
[55]
  TGI: > 100 µM
[56]
  TGI: > 100 µM
[57]
  TGI: > 100 µM

## O=C1c2cc([N+](=O)[O-])sc2C(=O)c2c([N+](=O)[O-])csc21
[1]
  TGI: 1.4 µM
[2]
  TGI: 2.06 µM
[3]
  TGI: 1.01 µM
[4]
  TGI: 2.6 µM
[5]
  TGI: 3.04 µM
[6]
  TGI: 3.26 µM
[7]
  TGI: 3.56 µM
[8]
  TGI: 1.17 µM
[9]
  TGI: 3.07 µM
[10]
  TGI: 2.95 µM
[11]
  TGI: 0.82 µM
[12]
  TGI: 0.994 µM
[13]
  TGI: 1.93 µM
[14]
  TGI: 1.07 µM
[59]
  TGI: 173 nM
[15]
  TGI: 1.09 µM
[16]
  TGI: 0.934 µM
[17]
  TGI: 3.09 µM
[18]
  TGI: 0.313 µM
[19]
  TGI: 2.05 µM
[20]
  TGI: 0.269 µM
[21]
  TGI: 3.4 µM
[22]
  TGI: 1.66 µM
[23]
  TGI: 753 nM
[24]
  TGI: 0.779 µM
[26]
  TGI: 1.68 µM
[27]
  TGI: 4.09 µM
[28]
  TGI: 1.76 µM
[29]
  TGI: 1.92 µM
[30]
  TGI: 1.31 µM
[31]
  TGI: 3.18 µM
[32]
  TGI: 3.02 µM
[33]
  TGI: 2.32 µM
[34]
  TGI: 3 µM
[35]
  TGI: 3.37 µM
[36]
  TGI: 1.19 µM
[37]
  TGI: 4.41 µM
[38]
  TGI: 3.09 µM
[39]
  TGI: 0.112 µM
[40]
  TGI: 0.399 µM
[58]
  TGI: 0.484 µM
[42]
  TGI: 1.26 µM
[43]
  TGI: 2.48 µM
[44]
  TGI: 4.16 µM
[45]
  TGI: 0.389 µM
[46]
  TGI: 0.311 µM
[48]
  TGI: 0.363 µM
[49]
  TGI: 3.34 µM
[50]
  TGI: 2.3 µM
[52]
  TGI: 1.78 µM
[53]
  TGI: 3.77 µM
[54]
  TGI: 3.5 µM
[56]
  TGI: 3.8 µM
[57]
  TGI: 2.19 µM
